Reference: patent EP4389117A1, “PROGESTERONE FORMULATION” (Besins Healthcare Distribution FZ-LLC, priority 2022, dated 2024)
Where two headings read alike, the source gives them in different places.

How the values were obtained:
[1] = Particle size distribution (PSD) measurement by laser light diffractometry, Malvern Mastersizer 2000; assay type: physicochemical; conditions: starting powder before wet-medium-milling
Experimental: In this document, any particle size characteristic of the wet-media-milled progesterone particles is determined using laser light diffractometry and is based on a volume weighted particle size distribution, unless specifically indicated otherwise. […] As will be understood by those skilled in the art, the term "Dv50" as used herein refers to the point in the size distribution, up to and including which, 50% of the total volume of material in the sample is 'contained'. […] Particle size distribution ('PSD') characteristics are determined using a Malvern® Mastersizer 2000 apparatus equipped with a Hydro 2000 SM wet sample dispersion unit, operated with the settings summarized in table 1. Table 1 - PSD measurement settings [table]

[2] = single 200 mg oral dose, cited from earlier work

Compound: CC(=O)[C@H]1CC[C@H]2[C@@H]3CCC4=CC(=O)CC[C@]4(C)[C@H]3CC[C@]12C [progesterone, pregn-4-ene-3,20-dione]
- Dv10 [1]: 4.7
- Dv50 [1]: 38.4
- Dv90 [1]: 74.6
- peak levels of progesterone compared to plain milled progesterone ([2]; as a consequence of micronization): 1.4 fold
- peak levels of progesterone compared to plain milled progesterone ([2]; as a consequence of the suspension in oil): 1.2 fold
- peak levels of progesterone compared to plain milled progesterone ([2]; combination of micronization and the suspension in oil): 3.2 fold
